According to patent US9950004B2, “Treatment and prevention of learning and memory disorders” (priority 2012, dated 2018):

Experiments:
[1] = test system: micro-capillary blood flow to skin; assay: Laser Doppler study, closed Hilltop chamber on forearm, three human female subjects (Example 6); format: in vivo; details: 1/10% in alcohol applied to the skin
Description: The formulation used in these studies contained nitric oxide dispersed in a lipid matrix. […] Nitric oxide is a very rapid acting molecule, and these studies used a system that employed laser Doppler with a covered chamber. The formulation was placed into the chamber and then attached to the skin by an adhesive layer on the covering. This provided a stable measuring device as determined by multiple normal evaluations of the capillary blood flow without treatment of nitric oxide.
A known positive control, methyl nicotinate, was applied to the skin at a concentration of 1/10% in alcohol. […] The vascular dynamics are such that when the blood vessels dilate physical parameters follow Bernoulli's law. […] The laser Doppler device accurately measured these parameters.
In these studies, the participants were healthy females aged 30 to 55 years. They were in good health as determined by the medical history and were not taking any prescription medications. All study participants read and signed the informed consent statement prior to any study procedures being performed. […]
A Moor Instruments DRT4 Laser Doppler Blood Flow Monitor (Devon, England) was used in these studies. The laser Doppler technique measured blood flow in the microcapillaries of the skin that are close to the skin surface and the blood flow in underlying arterioles and venules that help to regulate skin temperature. […]

capillary circulation = assay: Laser Doppler study of creams in five human subjects (second Example 7); format: in vivo; details: positive control formulation containing 0.1% methyl nicotinate
Description: This example illustrates delivery of nitric oxide formulations to five human subjects, using procedures and formulations similar to those discussed in Example 6. Each person served as their own control for the testing. A Moor Instruments Laser Doppler was used to determine circulation. […] The formulations used produce positive, almost immediate results when applied to the skin which, in these studies, was manifested by vasodilatation of the cutaneous vascular system.
For each subject, the following creams were applied: a negative control formulation (containing no NO), 0.010 gram of a 10,000 ppm NO formulation, 0.020 gram of a 10,000 ppm NO formulation, and a positive control formulation containing 0.1% methyl nicotinate. The formulations were prepared using procedures similar to those discussed in Example 1.

## COC(=O)c1cccnc1 [methyl nicotinate]
[1]
  vasodilator response (positive control): rapid response typical of the vasodilator
Capillary circulation
  vasodilatation: vasodilatation was observed
